Experimental data as given in US12178825B2, “Method and compositions for forming a copper-containing complex and uses thereof” (COLD SPRING HARBOR LABORATORY, priority 2017, dated 2024).
“Also recorded” adds a separate entry of the source.

Key:
[1] = ESI-MS analysis of complex formation with a series of other metal ions; type: binding; details: panel of metals
Protocol: Eight equivalents of M(NO3)2·xH2O or MSO4·xH2O were reacted with 1 eq. of DPM-1001, DPM-1003 or analog 2 (1 mM in H2O). The reaction solutions were stirred at RT, 40° C. and 80° C. for 2 h. Each sample was diluted 5-fold in 50% methanol, 0.1% formic acid and loaded into a 500 μL syringe. A Thermo Vantage triple quadrupole mass spectrometer (Thermo Scientific), equipped with an HESI spray source was coupled to an Accela HPLC system (Thermo Scientific). Mobile phase A consisted of 0.1% formic acid and mobile phase B consisted of 0.1% formic acid in methanol. Isocratic flow was set to 50% B at 200 μL/min. 200 μl samples were injected into the LC flow line via syringe pump at 10 μL/min and electrosprayed into the Vantage triple quadrupole mass spectrometer. A spray voltage of 4.3 kV was used along with a capillary temperature of 350° C. Each full MS scan was 0.5 s and data were collected with a scan range of 200 m/z to 900 m/z over 1 min.

TX mice = assay: Tissue and fecal copper levels (ICP-MS, rhodanine staining); type: in vivo, mouse
Protocol: C3He-Atp7b^tx-j were obtained from the Jackson laboratory. All animal experiments were performed according to protocols approved by the Institutional Animal Use and Care Committee of Cold Spring Harbor laboratory. Mice were injected intraperitoneally (i.p.) with vehicle, or administered DPM-1001 intraperitoneally or orally at 5 mg/kg once every third day, for over a year. At the end of the study animals were euthanized and tissue samples were removed for biochemical studies.
Tissue samples from wild-type or TX mice treated with saline, DPM-1001 or tetrathiomolybdate was washed three times with PBS containing 1 mM EDTA (to remove nonspecifically bound copper). Then, 215 μl of concentrated nitric acid (BDH Aristar Ultra) was added to each sample and incubated overnight. Samples were boiled at 95° C. for 1 h. and approximately 150 μl of each sample was further diluted in 2 ml 2% nitric acid (made freshly from concentrated nitric acid and Milli-Q water) Samples were analyzed on a Thermo Fisher iCAP Qc ICP mass spectrometer in kinetic energy discrimination (KED) mode against a calibration curve of known copper and phosphorus concentrations, with Ga (20 μg/l, Inorganic Ventures) as an internal standard, Each experiment was carried out twice and each condition was repeated in at least triplicate.
Liver tissues from wild-type and TX mice from untreated and DPM-1001-treated mice were sectioned and stained with H&E or rhodanine. Whole-slide, digitized images of H&E-stained tissue were captured using the Aperio ScanScope XT automated scanning system (Vista, CA). Image J software was used to quantitate rhodanine staining.

MDA-MB-231 cells = assay: Cell survival; type: cell-based
Protocol: The MTT assay was used to evaluate cell survival in the absence and presence of different compounds. The thiazolyl blue tetrazolium bromide (MTT) was dissolved in phosphate buffered saline (PBS) at a concentration of 5 mg/ml, filtered, and stored at 4° C. About 10,000 cells were seeded into a 96-well plate and cultured in growth medium containing serum. After 24 hours, cells were treated with the indicated concentrations of DPM-1001 or DPM-1003 (0-100 uM) for 2 hrs. Following which 20 μl MTT was added into each well. An ELISA plate reader (Biotek, Winooski, Vermont, USA) was used to measure the optical density at 490 nm.
MDA-MB-231 cells (1×10^5) were seeded in 6 cm plates in growth medium. The cells were untreated or treated with DPM-1001 (0.5, 1, 2 and 5 μM), DPM-1003 (0.5, 1, 2 and 5 μM) or TTM (25, 50, 100 μM) for 1 h. Following which, media was gently aspirated and cells were washed with PBS. To each plate 0.5 ml of crystal violet (0.5%) was added and incubated in dark for 10 minutes at room temperature. The staining solution was removed and plates were washed with PBS (three times). The cells stained with the dye were imaged.

MDA-MB-231 and SUM159 = assay: Immunoblot of phospho-Erk; type: cell-based; details: DPM-1001 1-2 μM
Description: (§1) Equal quantities of lysates were isolated from indicated cell lines and then resolved by SDS-PAGE and immunoblotted with one of the following primary antibodies: mouse anti-MEK1/2, rabbit anti-p-PAK1, rabbit anti-PAK1, rabbit anti-ERK1/2, rabbit anti-phospho(Ser 217/221)-MEK1/2, rabbit anti-phospho(Thr 202/Tyr 204)-ERK1/2, rabbit anti-phospho (Ser 338)-c-RAF, rabbit anti-RAF, rabbit anti-phospho (Ser 112)-BAD and rabbit anti-BAD (Cell Signaling Technology), mouse anti-β-actin (Sigma), followed by detection with one of the following horseradish peroxidase-conjugated secondary antibodies: goat anti-rabbit IgG, goat anti-mouse IgG (Invitrogen), mouse anti-rabbit light-chain-specific IgG (Jackson ImmunoResearch Laboratories) using enhanced chemiluminescence (ECL; GE Healthcare) or SuperSignal West Femto Chemiluminescent substrate (Pierce) detection reagents.

TNBC cells = assay: Immunoblot of copper-induced signaling; type: cell-based; details: co-administration
Description: as §1

COC(=O)CCC(C)C1CCC2C3C(O)CC4CC(NCCCCNCc5ccccn5)CCC4(C)C3CCC12C (centres unmarked) [DPM-1001]
complex formation with other metals [1]: none formed a complex with the compound | copper levels in feces (TX mice; TX mice): dramatically elevated | rhodanine staining of liver (TX mice; TX mice): no obvious staining for rhodanine | copper levels in liver and brain (TX mice; TX mice, ICP-MS): inhibits copper accumulation in liver and brain; also recorded: lowered the levels of copper in both tissues; also recorded: as effective as tetrathiomolybdate in removing copper from the liver and brain | copper levels in feces (TX mice; TX mice, listed as DMP-1001): elevated copper levels in feces | copper levels in kidney (TX mice; wild-type and TX mice, ICP-MS): does not promote accumulation of copper in the kidney; also recorded: no significant differences | rhodanine staining of liver (TX mice; wild-type mice): No signal was detected | survival of MDA-MB-231 cells (MDA-MB-231 cells): inhibiting survival; also recorded: inhibition of survival | levels of phospho-Erk (MDA-MB-231 and SUM159): high levels of reduction; also recorded: greater than that seen with 50 μM of bathocuproine disulfonate or 25 μM of TTM | copper-induced increase of pS338-RAF1 and pS112-BAD (TNBC cells; 5-10 μM copper in culture media): reduced or blocked | copper-induced increase of phospho-PAK1 (TNBC cells; copper added to culture media): blocked
